ChEMBL document CHEMBL5579809, “Exploration of bromodomain ligand-linker conjugation sites for efficient CBP/p300 heterobifunctional degrader activity” (Bioorg Med Chem Lett, 2024)
Activity calls are given as the source filed them. The rule behind the calls is not given here.

Assays:
[1] = target: Protein cereblon/Bromodomain-containing protein 4 (Homo sapiens) (UniProt O60885+Q96SW2); experiment: PROTAC activity at CRBN/HiBiT-tagged BRD4 in human HAP1 cells assessed as induction of BRD4 degradation measured over 24 hrs by luminescence based analysis; format: cell-based
[2] = target: T1, Protein cereblon/Histone acetyltransferase p300 (Homo sapiens) (UniProt Q09472+Q96SW2); experiment: PROTAC activity at CRBN/HiBiT-tagged p300 in human HAP1 cells assessed as total cumulative degradation by measuring AUC at 1000 nM measured over 24 hrs by luminescence based analysis; format: cell-based
[3] = target: T1, Protein cereblon/Histone acetyltransferase p300 (Homo sapiens); experiment: PROTAC activity at CRBN/HiBiT-tagged p300 in human HAP1 cells assessed as total cumulative degradation by measuring AUC at 100 nM measured over 24 hrs by luminescence based analysis; format: cell-based
[4] = target: T2, Protein cereblon/CREB-binding protein (Homo sapiens) (UniProt Q92793+Q96SW2); experiment: PROTAC activity at CRBN/HiBiT-tagged CBP in human HAP1 cells assessed as total cumulative degradation by measuring AUC at 1000 nM measured over 24 hrs by luminescence based analysis; format: cell-based
[5] = target: T1, Protein cereblon/Histone acetyltransferase p300 (Homo sapiens); experiment: PROTAC activity at CRBN/HiBiT-tagged p300 in human HAP1 cells assessed as induction of p300 degradation by measuring degradation rate at 10 nM measured over 24 hrs by luminescence based analysis; format: cell-based
[6] = target: T1, Protein cereblon/Histone acetyltransferase p300 (Homo sapiens); experiment: PROTAC activity at CRBN/HiBiT-tagged p300 in human HAP1 cells assessed as induction of p300 degradation by measuring maximal efficacy at 10 nM measured over 24 hrs by luminescence based analysis relative to control; format: cell-based
[7] = target: T2, Protein cereblon/CREB-binding protein (Homo sapiens); experiment: PROTAC activity at CRBN/HiBiT-tagged CBP in human HAP1 cells assessed as total cumulative degradation by measuring AUC at 1 nM measured over 24 hrs by luminescence based analysis; format: cell-based
[8] = target: T2, Protein cereblon/CREB-binding protein (Homo sapiens); experiment: PROTAC activity at CRBN/HiBiT-tagged CBP in human HAP1 cells assessed as total cumulative degradation by measuring AUC at 100 nM measured over 24 hrs by luminescence based analysis; format: cell-based
[9] = target: T1, Protein cereblon/Histone acetyltransferase p300 (Homo sapiens); experiment: PROTAC activity at CRBN/HiBiT-tagged p300 in human HAP1 cells assessed as total cumulative degradation by measuring AUC at 0.1 nM measured over 24 hrs by luminescence based analysis; format: cell-based
[10] = target: T1, Protein cereblon/Histone acetyltransferase p300 (Homo sapiens); experiment: Binding affinity to recombinant CRBN/p300 bromodomain (unknown origin) assessed as ternary complex formation at 10 to 100 nM by Alphascreen-based proximity assay; format: protein assay; details: dose 10-100 nM
[11] = target: T1, Protein cereblon/Histone acetyltransferase p300 (Homo sapiens); experiment: PROTAC activity at CRBN/HiBiT-tagged p300 in human HAP1 cells assessed as total cumulative degradation by measuring AUC at 1 nM measured over 24 hrs by luminescence based analysis; format: cell-based
[12] = target: T1, Protein cereblon/Histone acetyltransferase p300 (Homo sapiens); experiment: PROTAC activity at CRBN/HiBiT-tagged p300 in human HAP1 cells assessed as total cumulative degradation by measuring AUC at 10 nM measured over 24 hrs by luminescence based analysis; format: cell-based
[13] = target: T2, Protein cereblon/CREB-binding protein (Homo sapiens); experiment: PROTAC activity at CRBN/HiBiT-tagged CBP in human HAP1 cells assessed as total cumulative degradation by measuring AUC at 10 nM measured over 24 hrs by luminescence based analysis; format: cell-based
[14] = target: T2, Protein cereblon/CREB-binding protein (Homo sapiens); experiment: PROTAC activity at CRBN/HiBiT-tagged CBP in human HAP1 cells assessed as total cumulative degradation by measuring AUC at 0.1 nM measured over 24 hrs by luminescence based analysis; format: cell-based
[15] = target: T1, Protein cereblon/Histone acetyltransferase p300 (Homo sapiens); experiment: PROTAC activity at CRBN/HiBiT-tagged p300 in human HAP1 cells assessed as induction of p300 degradation by measuring degradation rate at 100 nM measured over 24 hrs by luminescence based analysis; format: cell-based
[16] = target: T1, Protein cereblon/Histone acetyltransferase p300 (Homo sapiens); experiment: PROTAC activity at CRBN/HiBiT-tagged p300 in human HAP1 cells assessed as induction of p300 degradation by measuring maximal efficacy at 100 nM measured over 24 hrs by luminescence based analysis relative to control; format: cell-based
[17] = target: T2, Protein cereblon/CREB-binding protein (Homo sapiens); experiment: Binding affinity to recombinant CRBN/CBP bromodomain (unknown origin) assessed as ternary complex formation at 10 to 100 nM by Alphascreen-based proximity assay; format: protein assay; details: dose 10-100 nM
[18] = target: T1, Protein cereblon/Histone acetyltransferase p300 (Homo sapiens); experiment: PROTAC activity at CRBN/HiBiT-tagged p300 in human HAP1 cells assessed as total cumulative degradation by measuring AUC at 0.01 nM measured over 24 hrs by luminescence based analysis; format: cell-based
[19] = target: T2, Protein cereblon/CREB-binding protein (Homo sapiens); experiment: PROTAC activity at CRBN/HiBiT-tagged CBP in human HAP1 cells assessed as total cumulative degradation by measuring AUC at 0.01 nM measured over 24 hrs by luminescence based analysis; format: cell-based
[20] = target: T1, Protein cereblon/Histone acetyltransferase p300 (Homo sapiens); experiment: PROTAC activity at CRBN/HiBiT-tagged p300 in human HAP1 cells assessed as induction of p300 degradation by measuring degradation rate at 1000 nM measured over 24 hrs by luminescence based analysis; format: cell-based
[21] = target: T1, Protein cereblon/Histone acetyltransferase p300 (Homo sapiens); experiment: PROTAC activity at CRBN/HiBiT-tagged p300 in human HAP1 cells assessed as induction of p300 degradation by measuring maximal efficacy at 1000 nM measured over 24 hrs by luminescence based analysis relative to control; format: cell-based
[22] = target: T2, Protein cereblon/CREB-binding protein (Homo sapiens); experiment: PROTAC activity at CRBN/HiBiT-tagged CBP in human HAP1 cells assessed as induction of CBP degradation by measuring maximal efficacy at 1000 nM measured over 24 hrs by luminescence based analysis relative to control; format: cell-based
[23] = target: T2, Protein cereblon/CREB-binding protein (Homo sapiens); experiment: PROTAC activity at CRBN/HiBiT-tagged CBP in human HAP1 cells assessed as induction of CBP degradation by measuring degradation rate at 1000 nM measured over 24 hrs by luminescence based analysis; format: cell-based

T1 sequence (Q09472 2-2414 limits assumed): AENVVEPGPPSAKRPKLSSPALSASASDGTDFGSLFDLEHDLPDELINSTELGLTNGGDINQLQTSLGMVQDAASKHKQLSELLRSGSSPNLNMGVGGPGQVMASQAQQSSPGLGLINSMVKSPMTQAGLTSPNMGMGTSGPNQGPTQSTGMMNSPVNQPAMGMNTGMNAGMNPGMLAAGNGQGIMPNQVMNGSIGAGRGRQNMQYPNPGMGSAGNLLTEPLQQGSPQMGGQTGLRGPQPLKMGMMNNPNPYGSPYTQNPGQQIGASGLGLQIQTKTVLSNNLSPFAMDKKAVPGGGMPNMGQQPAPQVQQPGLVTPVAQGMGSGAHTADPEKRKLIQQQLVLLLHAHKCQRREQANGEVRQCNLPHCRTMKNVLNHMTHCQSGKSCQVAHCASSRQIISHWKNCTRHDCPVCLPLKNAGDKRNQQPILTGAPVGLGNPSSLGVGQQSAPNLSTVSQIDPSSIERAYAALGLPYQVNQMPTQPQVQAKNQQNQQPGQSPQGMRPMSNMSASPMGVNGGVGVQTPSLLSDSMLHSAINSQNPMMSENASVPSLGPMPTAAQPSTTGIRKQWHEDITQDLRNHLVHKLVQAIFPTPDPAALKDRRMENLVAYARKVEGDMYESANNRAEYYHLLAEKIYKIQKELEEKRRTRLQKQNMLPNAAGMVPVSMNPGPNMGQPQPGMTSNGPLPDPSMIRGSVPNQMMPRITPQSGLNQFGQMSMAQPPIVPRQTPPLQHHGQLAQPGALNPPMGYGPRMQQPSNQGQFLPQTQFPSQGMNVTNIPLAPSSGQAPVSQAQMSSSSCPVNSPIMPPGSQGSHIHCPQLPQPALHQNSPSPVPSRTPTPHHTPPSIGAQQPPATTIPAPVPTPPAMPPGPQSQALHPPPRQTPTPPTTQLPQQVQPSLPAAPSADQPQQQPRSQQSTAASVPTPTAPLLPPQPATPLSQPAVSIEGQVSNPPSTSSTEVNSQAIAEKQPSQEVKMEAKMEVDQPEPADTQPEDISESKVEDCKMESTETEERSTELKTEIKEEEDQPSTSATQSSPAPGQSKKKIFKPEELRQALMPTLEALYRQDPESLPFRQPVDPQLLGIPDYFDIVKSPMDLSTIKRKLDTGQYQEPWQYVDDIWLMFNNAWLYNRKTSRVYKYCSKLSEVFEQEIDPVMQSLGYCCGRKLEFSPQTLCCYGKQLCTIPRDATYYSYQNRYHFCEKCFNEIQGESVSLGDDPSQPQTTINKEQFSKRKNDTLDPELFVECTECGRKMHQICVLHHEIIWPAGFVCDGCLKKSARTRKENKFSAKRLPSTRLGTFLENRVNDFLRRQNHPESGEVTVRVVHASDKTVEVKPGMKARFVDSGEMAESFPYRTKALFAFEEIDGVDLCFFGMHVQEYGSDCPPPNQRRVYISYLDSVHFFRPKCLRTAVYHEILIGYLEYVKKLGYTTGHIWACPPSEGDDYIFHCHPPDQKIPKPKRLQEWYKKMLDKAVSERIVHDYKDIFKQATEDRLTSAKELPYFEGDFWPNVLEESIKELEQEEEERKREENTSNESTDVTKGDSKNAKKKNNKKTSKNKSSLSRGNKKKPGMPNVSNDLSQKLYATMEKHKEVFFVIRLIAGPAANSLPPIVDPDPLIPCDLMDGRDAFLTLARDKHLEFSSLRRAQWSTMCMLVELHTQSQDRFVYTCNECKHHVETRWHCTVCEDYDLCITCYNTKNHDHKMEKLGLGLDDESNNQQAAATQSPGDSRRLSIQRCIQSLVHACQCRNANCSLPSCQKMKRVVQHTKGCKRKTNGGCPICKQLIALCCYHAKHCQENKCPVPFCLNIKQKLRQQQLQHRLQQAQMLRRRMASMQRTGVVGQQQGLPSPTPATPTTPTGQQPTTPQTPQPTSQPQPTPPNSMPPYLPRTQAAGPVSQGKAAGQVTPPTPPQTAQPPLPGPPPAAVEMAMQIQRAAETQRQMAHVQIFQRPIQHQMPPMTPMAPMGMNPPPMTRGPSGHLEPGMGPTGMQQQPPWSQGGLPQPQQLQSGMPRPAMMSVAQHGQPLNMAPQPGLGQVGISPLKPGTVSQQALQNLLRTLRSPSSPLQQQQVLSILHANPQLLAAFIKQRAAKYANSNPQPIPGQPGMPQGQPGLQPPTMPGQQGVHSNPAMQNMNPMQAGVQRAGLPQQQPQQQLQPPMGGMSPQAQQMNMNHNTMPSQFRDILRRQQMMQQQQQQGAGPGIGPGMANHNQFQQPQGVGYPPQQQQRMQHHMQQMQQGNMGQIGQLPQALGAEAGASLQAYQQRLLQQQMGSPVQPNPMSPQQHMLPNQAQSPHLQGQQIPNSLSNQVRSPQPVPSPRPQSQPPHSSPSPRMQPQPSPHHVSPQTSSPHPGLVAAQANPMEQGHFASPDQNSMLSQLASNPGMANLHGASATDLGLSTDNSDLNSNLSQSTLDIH
T1 sequence (Q96SW2 whole entry partner): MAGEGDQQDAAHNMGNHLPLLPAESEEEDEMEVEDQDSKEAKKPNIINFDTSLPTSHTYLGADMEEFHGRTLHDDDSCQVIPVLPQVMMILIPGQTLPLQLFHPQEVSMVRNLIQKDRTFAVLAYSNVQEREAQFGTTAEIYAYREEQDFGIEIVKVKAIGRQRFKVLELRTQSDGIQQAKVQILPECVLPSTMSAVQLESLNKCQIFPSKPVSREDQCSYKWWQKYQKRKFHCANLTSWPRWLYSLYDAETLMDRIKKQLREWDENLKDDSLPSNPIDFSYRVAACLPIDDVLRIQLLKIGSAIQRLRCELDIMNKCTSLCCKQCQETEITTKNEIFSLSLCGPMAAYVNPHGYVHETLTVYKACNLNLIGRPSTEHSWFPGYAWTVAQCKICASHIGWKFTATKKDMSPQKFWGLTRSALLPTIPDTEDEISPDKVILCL
Protein cereblon/Bromodomain-containing protein 4 (Homo sapiens), sequence (Q96SW2 whole entry, looked up, other chains not shown): as the sequence (Q96SW2 whole entry partner) above

Activity [1] | AUC [2] | AUC [3] | AUC [4] | AUC [7] | AUC [8] | AUC [9] | Activity [10] | AUC [11] | AUC [12] | AUC [13] | AUC [14] | Activity [17] | AUC [18] | AUC [19] | Activity [20] [h⁻¹] | Emax [21] [%] | SMILES | other results
inactive | 26.1 | 22.4 | 25 | 23.6 | 23.2 | 27 | Active | 26.1 | 22.7 | 23 | 22.8 | Active | 27.6 | 21.6 |  |  | CNC(=O)N1CCc2c(c(N3CCCc4cc(-c5cnn(CC(=O)NCCOCCOCCOCCOCCOCCOCCNc6ccc7c(c6)C(=O)N(C6CCC(=O)NC6=O)C7=O)c5)c(C(F)F)cc43)nn2C2CCOCC2)C1 (stereo not drawn) | Activity [5]: 0.006 h⁻¹; Emax [6]: 19%; Activity [15]: 0.02 h⁻¹; Emax [16]: 21%
inactive | 22.3 | 26.2 | 21.4 | 23.9 | 23.6 | 27.5 |  | 26.9 | 27 | 24.9 | 25 |  | 27.5 | 23.4 | 0.02 | 20 | CNC(=O)N1CCc2c(c(N3CCN(C(=O)NCCOCCNc4ccc5c(c4)C(=O)N(C4CCC(=O)NC4=O)C5=O)c4cc(-c5cnn(C)c5)c(C(F)(F)F)cc43)nn2C2CCOCC2)C1 (stereo not drawn) | Emax [22]: 26%; Activity [23]: 0.036 h⁻¹
inactive | 20.5 | 24.2 | 23 | 24.5 | 24.1 | 27.5 | Active | 27.4 | 26.4 | 24.2 | 24.4 | Active | 27.7 | 24.9 | 0.05 | 33 | CNC(=O)N1CCc2c(c(N3CCN(C(=O)NCCOCCOCCOCCOCCOCCOCCNc4ccc5c(c4)C(=O)N(C4CCC(=O)NC4=O)C5=O)c4cc(-c5cnn(C)c5)c(C(F)(F)F)cc43)nn2C2CCOCC2)C1 (stereo not drawn) | 
